Measured values from patent publication US10626081B2, “Farnesoid X receptor agonists and uses thereof” (Metacrine, Inc., priority 2015, dated 2020).

Assays:
[1] = target: T1, FXR (Homo sapiens, UniProt Q96RI1); assay: In Vitro FXR Assay (PGL3): luciferase reporter in transfected CV-1 cells; format: cell-based; conditions: CV-1 cells transfected with hFXR, hRXR, PGL3-ECRE*6-luc; 18 h incubation; luminescence
T1 construct: expressed in transfected cells; host or cells: CV-1 cells
T1 sequence (Q96RI1 1-486): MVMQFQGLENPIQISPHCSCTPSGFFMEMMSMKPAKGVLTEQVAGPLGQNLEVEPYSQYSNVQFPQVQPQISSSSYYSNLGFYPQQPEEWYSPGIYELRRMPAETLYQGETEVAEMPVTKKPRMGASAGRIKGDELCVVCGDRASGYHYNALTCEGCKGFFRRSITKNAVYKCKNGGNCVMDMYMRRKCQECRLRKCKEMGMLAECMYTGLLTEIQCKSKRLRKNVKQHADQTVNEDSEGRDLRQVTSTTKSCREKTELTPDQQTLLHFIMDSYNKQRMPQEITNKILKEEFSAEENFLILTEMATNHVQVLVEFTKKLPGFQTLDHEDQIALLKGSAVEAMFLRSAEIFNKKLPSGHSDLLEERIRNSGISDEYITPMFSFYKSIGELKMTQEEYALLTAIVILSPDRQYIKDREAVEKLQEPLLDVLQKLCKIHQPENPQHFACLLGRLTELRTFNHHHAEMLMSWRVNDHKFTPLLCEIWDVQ
T1 sequence (P19793 1-462 partner): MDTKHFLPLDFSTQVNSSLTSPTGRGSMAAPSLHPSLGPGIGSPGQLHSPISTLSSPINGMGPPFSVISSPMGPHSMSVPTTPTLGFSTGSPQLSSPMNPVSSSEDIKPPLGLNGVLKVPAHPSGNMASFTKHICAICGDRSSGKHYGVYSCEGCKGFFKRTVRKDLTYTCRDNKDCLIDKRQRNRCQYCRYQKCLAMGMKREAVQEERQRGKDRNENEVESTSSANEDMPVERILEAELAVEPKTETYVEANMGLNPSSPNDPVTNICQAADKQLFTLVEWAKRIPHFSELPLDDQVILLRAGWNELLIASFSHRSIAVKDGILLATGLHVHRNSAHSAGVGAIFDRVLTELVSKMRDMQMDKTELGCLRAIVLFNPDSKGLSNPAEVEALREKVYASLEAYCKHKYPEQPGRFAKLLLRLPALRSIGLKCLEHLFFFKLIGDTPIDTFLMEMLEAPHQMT
How it was run: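 CV-1 cells in charcoal-stripped FBS were transiently co-transfected with full-length human FXR, RXR, an ECRE×6-luciferase reporter, β-gal and YFP plasmids. Transfected cells were reseeded onto half-log compound dilutions and incubated 18 h. Luciferase luminescence was read after lysis, and EC50 was determined.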

[2] = target: T1, FXR; assay: In Vitro FXR Assay (TK): TK-ECRE-luc reporter in transfected CV-1 cells; format: cell-based; conditions: CV-1 cells transfected with hFXR, hRXR, 18 h incubation, luminescence
How it was run: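 CV-1 cells in charcoal-stripped FBS medium were transiently cotransfected with hFXR, hRXR, TK-ECRE-luc and pCMX-YFP plasmids. After 18 h, compounds serially diluted in DMSO were added for 18 h at 37 °C, 5% CO2, then cells were lysed and luminescence read.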

Row | Structure (SMILES) | Cmpd/Fex (ratio of the EC50 for the test compound relative to the EC50 of the Fexaramine control) [1] | EC50 [2]
1 | COC(=O)/C=C/c1cccc(N(Cc2ccc(-c3ccccc3O)cc2)C(=O)C2CCCCC2)c1 [compound 56, (E)-Methyl 3-(3-(N-((2′-hydroxy-[1,1′-biphenyl]-4-yl)methyl)cyclohexanecarboxamido)phenyl) acrylate] | ++ (‘++’ means Cmpd/Fex > 10 & < 100) | 1000 to 10000 nM
2 | COC(=O)/C=C/c1cccc(N(Cc2ccc(-c3ccc(O)cc3)cc2)C(=O)C2CCCCC2)c1 [compound 57, (E)-Methyl 3-(3-(N-((4′-hydroxy-[1,1′-biphenyl]-4-yl)methyl)cyclohexanecarboxamido)phenyl) acrylate] | + (‘+’ means Cmpd/Fex > 100) | > 10000 nM
3 | COC(=O)/C=C/c1cccc(N(Cc2ccc(-c3ccc(C)c(OC)c3)cc2)C(=O)C2CCCCC2)c1 [compound 58, (E)-Methyl 3-(3-(N-((3′-methoxy-4′-methyl-[1,1′-biphenyl]-4-yl)methyl)cyclohexanecarboxamido)phenyl) acrylate] | +++ (‘+++’ means Cmpd/Fex < 10) | 1000 to 10000 nM
4 | COC(=O)/C=C/c1cccc(N(Cc2ccc(-c3c(F)cccc3F)cc2)C(=O)C2CCCCC2)c1 [compound 59, (E)-Methyl 3-(3-(N-((2′,6′-difluoro-[1,1′-biphenyl]-4-yl)methyl)cyclohexanecarboxamido)phenyl) acrylate] | + (‘+’ means Cmpd/Fex > 100) | 1000 to 10000 nM
5 | COC(=O)/C=C/c1cccc(N(Cc2ccc(-c3ccc(N(C)C(=O)OC(C)(C)C)cc3)cc2)C(=O)C2CCCCC2)c1 [compound 60, (E)-Methyl 3-(3-(N-((4′-((tert-butoxycarbonyl)(methyl)amino)-[1,1′-biphenyl]-4-yl)methyl)cyclohexanecarboxamido)phenyl) acrylate] | + (‘+’ means Cmpd/Fex > 100) | > 10000 nM
6 | CNc1ccc(-c2ccc(CN(C(=O)C3CCCCC3)c3cccc(/C=C/C(=O)OC)c3)cc2)cc1 [compound 61, (E)-Methyl 3-(3-(N-((4′-(methylamino)-[1,1′-biphenyl]-4-yl)methyl)cyclohexanecarboxamido)phenyl) acrylate] | +++ (‘+++’ means Cmpd/Fex < 10) | 1000 to 10000 nM
7 | COC(=O)/C=C/c1cccc(N(Cc2ccc(-c3ccc4c(ccn4C)c3)cc2)C(=O)C2CCCCC2)c1 [compound 62, (E)-Methyl 3-(3-(N-(4-(1-methyl-1H-indol-5-yl)benzyl)cyclohexanecarboxamido)phenyl) acrylate] | +++ (‘+++’ means Cmpd/Fex < 10) | ≤ 1000 nM
8 | COC(=O)/C(C)=C/c1cccc(N(Cc2ccc(-c3ccc(N(C)C)cc3)cc2)C(=O)C2CCCCC2)c1 [compound 63, (E)-Methyl 3-(3-(N-((4′-(dimethylamino)-[1,1′-biphenyl]-4-yl)methyl)cyclohexanecarboxamido)phenyl)-2-methylacrylate] | +++ (‘+++’ means Cmpd/Fex < 10) | 1000 to 10000 nM
9 | COC(=O)/C=C/c1cccc(N(Cc2ccc(-c3ccc(OC)c(C#N)c3)cc2)C(=O)C2CCCCC2)c1 [compound 64, (E)-Methyl 3-(3-(N-((3′-cyano-4′-methoxy-[1,1′-biphenyl]-4-yl)methyl)cyclohexanecarboxamido)phenyl) acrylate] | +++ (‘+++’ means Cmpd/Fex < 10) | ≤ 1000 nM
10 | COC(=O)/C=C/c1cccc(N(Cc2ccc(-c3ccccn3)cc2)C(=O)C2CCCCC2)c1 [compound 65, (E)-Methyl 3-(3-(N-(4-(pyridin-2-yl)benzyl)cyclohexanecarboxamido)phenyl) acrylate] | + (‘+’ means Cmpd/Fex > 100) | 1000 to 10000 nM

Now from value to molecule:

Row | Cmpd/Fex (ratio of the EC50 for the test compound relative to the EC50 of the Fexaramine control) [1] | EC50 [2] | Structure (SMILES)
11 | + (‘+’ means Cmpd/Fex > 100) | 1000 to 10000 nM | COC(=O)/C=C/c1cccc(N(Cc2ccc(-c3ccccc3C#N)cc2)C(=O)C2CCCCC2)c1 [compound 66, (E)-Methyl 3-(3-(N-((2′-cyano-[1,1′-biphenyl]-4-yl)methyl)cyclohexanecarboxamido)phenyl) acrylate]
12 | + (‘+’ means Cmpd/Fex > 100) | 1000 to 10000 nM | COC(=O)/C=C/c1cccc(N(Cc2ccc(-c3nccs3)cc2)C(=O)C2CCCCC2)c1 [compound 67, (E)-Methyl 3-(3-(N-(4-(thiazol-2-yl)benzyl)cyclohexanecarboxamido)phenyl) acrylate]
13 | + (‘+’ means Cmpd/Fex > 100) | 1000 to 10000 nM | COC(=O)/C=C/c1cccc(N(Cc2ccc(-c3cscn3)cc2)C(=O)C2CCCCC2)c1 [compound 68, (E)-Methyl 3-(3-(N-(4-(thiazol-4-yl)benzyl)cyclohexanecarboxamido)phenyl) acrylate]
14 | + (‘+’ means Cmpd/Fex > 100) | 1000 to 10000 nM | COC(=O)/C=C/c1cccc(N(Cc2ccc(-c3cncs3)cc2)C(=O)C2CCCCC2)c1 [compound 69, (E)-Methyl 3-(3-(N-(4-(thiazol-5-yl)benzyl)cyclohexanecarboxamido)phenyl) acrylate]
15 | +++ (‘+++’ means Cmpd/Fex < 10) | 1000 to 10000 nM | COC(=O)/C=C/c1cccc(N(Cc2ccc(-c3ccc(C(C)C)cc3)cc2)C(=O)C2CCCCC2)c1 [compound 70, (E)-Methyl 3-(3-(N-((4′-isopropyl-[1,1′-biphenyl]-4-yl)methyl)cyclohexanecarboxamido)phenyl) acrylate]
16 | +++ (‘+++’ means Cmpd/Fex < 10) | 1000 to 10000 nM | C=C(C)c1ccc(-c2ccc(CN(C(=O)C3CCCCC3)c3cccc(/C=C/C(=O)OC)c3)cc2)cc1 [compound 71, (E)-Methyl 3-(3-(N-((4′-(prop-1-en-2-yl)-[1,1′-biphenyl]-4-yl)methyl)cyclohexanecarboxamido)phenyl) acrylate]
17 | +++ (‘+++’ means Cmpd/Fex < 10) | ≤ 1000 nM | COC(=O)/C=C/c1cccc(N(Cc2ccc(-c3ccc(N(C)C)c(C#N)c3)cc2)C(=O)C2CCCCC2)c1 [compound 72, (E)-Methyl 3-(3-(N-((3′-cyano-4′-(dimethylamino)-[1,1′-biphenyl]-4-yl)methyl)cyclohexanecarboxamido)phenyl) acrylate]
18 | +++ (‘+++’ means Cmpd/Fex < 10) | ≤ 1000 nM | COC(=O)/C=C/c1cccc(N(Cc2ccc(-c3ccc(N(C)C)c(F)c3)cc2)C(=O)C2CCCCC2)c1 [compound 73, (E)-Methyl 3-(3-(N-((4′-(dimethylamino)-3′-fluoro-[1,1′-biphenyl]-4-yl)methyl)cyclohexanecarboxamido)phenyl) acrylate]
19 | + (‘+’ means Cmpd/Fex > 100) | 1000 to 10000 nM | COC(=O)/C=C/c1cccc(N(Cc2ccc(-c3ccc4c(c3)ncn4C)cc2)C(=O)C2CCCCC2)c1 [compound 74, (E)-Methyl 3-(3-(N-(4-(1-methyl-1H-benzo[d]imidazol-5-yl)benzyl)cyclohexanecarboxamido)phenyl) acrylate]
20 | ++ (‘++’ means Cmpd/Fex > 10 & < 100) | 1000 to 10000 nM | COC(=O)/C=C/c1cccc(N(Cc2ccc(-c3ccc(N(C)C)c(OC)c3)cc2)C(=O)C2CCCCC2)c1 [compound 75, (E)-methyl 3-(3-(N-((4′-(dimethylamino)-3′-methoxy-[1,1′-biphenyl]-4-yl)methyl)cyclohexanecarboxamido)phenyl) acrylate]
21 | + (‘+’ means Cmpd/Fex > 100) | 1000 to 10000 nM | COC(=O)/C=C/c1cccc(N(Cc2ccc(N3CCOCC3)cc2)C(=O)C2CCCCC2)c1 [compound 77, (E)-Methyl 3-(3-(N-(4-morpholinobenzyl)cyclohexane-carboxamido)phenyl)acrylate]
